Experimental data taken from patent publication US7108832B2, “Sterialization methods and apparatus which employ additive-containing supercritical carbon dioxide sterilant” (NovaSterilis Inc., priority 2003, dated 2006).
Several values for one entry are separate records, joined by “and”; a condition that tells them apart may be missing. Equal entries are not always repeated.

How the values were obtained:
[1] = tested on: B. stearothermophilus spores; test: Comparative additives in supercritical CO2 sterilization (Example 7); format: cell-based; conditions: 1.0 vol. %
[2] = tested on: B. stearothermophilus spores; test: Linearity of inactivation, B. stearothermophilus spore bioindicators in TYVEK pouches (Example 8); format: cell-based; conditions: 4.5% peracetic acid at 0.02 vol. % + water at 1 vol. %
Procedure: Example 2B was repeated except that 4.5% peracetic acid was initially added to the vessel at 0.02 vol. % on a cotton ball and water was added on a separate cotton ball at 1 vol. %. B. stearothermophilus spores were inoculated onto glass fiber filters, allowed to dry and packaged into pouches formed of nonwoven fine polyethylene fibers (1073B TYVEK® brand material) and served as bioindicators. Total CFUs per filter were greater than 10^6. The bioindicators were exposed to differing times of treatment with 4 replicates per time point. The total remaining CFUs were then determined and a plot was generated of log reduction in CFUs over time (FIG. 3).

[3] = tested on: B. subtilis spore/vegetative preparations; test: Sterilization of B. subtilis spore/vegetative preparations with additive-containing supercritical CO2, residual CFU count (Examples 3A-3D, 6A, 6B); format: cell-based; conditions: for kill of bioindicators: constant 2000 psi rather than cycling
Procedure: A sample of B. subtilis spore/vegetative preparations (1 mL) of greater than 10^6 CFU/mL was placed in a 16 mm diameter test tube in a stainless steel basket. Acetic acid (6 mL) was transferred by syringe onto the surface of a cotton ball placed in the basket, which was then loaded into the 600 mL reactor vessel. The reactor vessel was heated to 50° C. and equilibrated with CO2 at atmospheric pressure. […] Agitation was carried out for 1 minute.
After depressurizing the reactor vessel, more acetic acid (4 mL) was introduced at ambient pressure to the additive loop via port 18 (FIG. 1). The loop was sealed and pressurized to 3000 psi. The reactor vessel was the re-pressurized through the additive loop to 3000 psi such that acetic acid was transported into the reactor vessel.
(§1) The pressurization/stirring/agitation/depressurization/additive addition process was repeated a total of three times. After the third cycle, a series of three flushing cycles to remove the additive was performed by pressurizing and de-pressurizing the reactor vessel using CO2. The stirring was stopped and the basket was removed from the reactor vessel. The residual CFUs were counted after serial dilution and culturing of both treated and untreated controls.

B. subtilis spores = conditions: method of the Dillow et al '864 patent, other investigators (Spilimbergo et al 2002); cited from earlier work
[4] = tested on: B. stearothermophilus spores; test: Sterilization of B. stearothermophilus spores with additive-containing supercritical CO2, residual CFU count (Example 2); format: cell-based; conditions: 4 mL additive + 6 mL water, 50° C., 2000 to 1100 psi, 3 cycles; multiple evaluations
Procedure: The apparatus generally depicted in FIGS. 1 and 2 was employed for this Example. A sample of B. stearothermophilus spores (1 mL) of greater than 10^6 CFU/mL was placed in 16 mm diameter test tubes in a stainless steel basket. Trifluoroacetic acid (4 mL) was transferred by syringe onto the surface of a cotton ball placed in the basket and water (6 mL) was placed at bottom of vessel. The basket was then loaded into the 600 mL reactor vessel. The reactor vessel was heated to 50° C. and equilibrated with CO2 at atmospheric pressure. The stirring and agitation mechanisms were activated and the reactor vessel pressurized to 2000 psi for 40 minutes. The CO2 pressure was then allowed to drop to 1100 psi at a rate of 300 psi/minute. Agitation by means of vibration of the vessel was carried out for 1 minute.
as §1, with “The pressurization/stirring/agitation/depressurization process was” for “The pressurization/stirring/agitation/depressurization/additive addition process was”, “pressurizing and partial de-pressurizing the” for “pressurizing and de-pressurizing the”

bacterial spores = test: Sterility assay of fresh or freeze-dried bone samples after treatment (Example 4); format: cell-based; conditions: 4 mL additive, 50° C., 3000 to 1500 psi, 3 cycles of 40 minutes
Procedure: Using the equipment and procedure in Example 1, samples of fresh or freeze-dried bone (1 cm×1 cm×0.5 cm) were placed into 16 mm test tubes in a stainless steel basket. Trifluoroacetic acid (4 mL) was transferred by syringe onto the surface of a cotton ball placed in basket, and the basket then loaded into the 600 mL reactor vessel. The reactor vessel was heated to 50° C. and equilibrated with CO2 at atmospheric pressure. The stirring and agitation mechanisms were activated and vessel pressurized to 3000 psi for 40 minutes. Agitation is carried out for 5 minutes. The CO2 pressure was then allowed to drop to 1500 psi at a rate of 300 psi/minute.
The pressurization/stirring/agitation/depressurization process was repeated a total of 3 times. After the third cycle, a series of three flushing cycles to remove the additive was performed by pressurizing and de-pressurizing the reactor vessel using CO2. The stirring was stopped and the basket was removed from the reactor vessel. Bone samples were assayed for sterility and compression strength with the results being that there was sterilization (i.e., >10^6 reduction in bacterial spores), and there was no reduction in compression strength attributes.

[5] = tested on: B. stearothermophilus spores; test: Inactivation of B. stearothermophilus spores, Dillow '864 method with and without additive (Example 1); format: cell-based; conditions: 1500–3000 psi, 3 cycles, agitation random/directional +/−, 60 °C, 2 hrs, initial 2.3 × 10^6 CFU/ml
Text: The effects of using an additive in accordance with the present invention was compared using the method described by U.S. Pat. No. 6,149,864 to Dillow et al for inactivating B. stearothermophilus spores. […] In contrast, a greater than 6 log reduction was achieved using the method of the present invention (Ex. B). The additive was placed on a cotton ball and inserted in the chamber prior to closure. No further additive was used.

In the case of O=C(O)CC(O)(CC(=O)O)C(=O)O [50% Citric acid, Citric acid], the Log reduction ([1]; 60 C, 2 hours, 3 cycles) is reported as 0.03–0.62 log.

For CC(=O)OO [peracetic acid], the “inactivation rates (log reduction in CFUs over time)” value ([2]; bioindicators in TYVEK pouches) was “linear”, the “time for a single log reduction in the bioindicator” value ([2]; spores on glass fiber filters in TYVEK pouches, >10^6 CFUs per filter, 4 replicates per time point) was 14.24 minutes and the kill of bioindicators ([3]; Example 6B: as 6A) was “Complete kill”.

For O=P(O)(O)O [Phosphoric acid], the Log reduction ([1]; 50 C, 2 hours, 3 cycles) was 0.18–0.25 log.

In the case of CCO [Ethanol], the Log reduction ([1]; 60–50 C, 3 hours, 4 cycles) is reported as 1.2–4.0 log.

In the case of O=C(O)CCC(=O)O [Succinic acid], the Log reduction ([1]; 50 C, 2 hours, 3 cycles) is reported as 0.25–0.29 log.

For O=C=O [supercritical carbon dioxide, carbon dioxide], the “log reduction in B. subtilis spores” value (B. subtilis spores) is given as 3.5 log.

With OCl [HOCl] the Log reduction ([1]; 60 C, 3 hours, 4 cycles) was 0–0.50 log.

With O=C(O)C(F)(F)F [Trifluoroacetic acid] the kill of bioindicators [4] was “Complete kill” and the “reduction in bacterial spores (sterility of bone samples)” value (bacterial spores) was > 10^6.

In the case of O=C(O)CC(=O)O [Malonic acid], the Log reduction ([1]; 50 C, 2 hours, 3 cycles) is reported as 0–0.12 log.

Compound O=CO [Formic acid] has a Log reduction ([1]; 50 C, 2 hours, 3 cycles) of 0 log.

In the case of O [Ex. A, Water], the “Final CFU/ml” value [5] is reported as 2.1 × 10^5 CFU/ml and the “Log reduction” value [5] is reported as 1 log and 1.0 log.

For CC(=O)O [acetic acid], the “kill of the B. subtilis present” value ([3]; Example 3B: as 3A, samples with less than 10^6 CFU/ml) was “total kill”, the “log reduction in CFUs extrapolated for greater than 10^6 CFU/ml” value ([3]; Example 3B: extrapolated from total kill of samples with less than 10^6 CFU/ml) was 6 log and the kill of bioindicators ([3]; Example 3D: as 3A) was “Compete kill”.
